The source of these data is US20150320709A1, “METHODS AND COMPOSITIONS FOR FACILITATING WEIGHT LOSS BY ADMINISTRATION OF THYROID HORMONES” (priority 2011, published 2015).

Type in all cases: in vivo, human
Assay [1] is described as follows: Blood pressure and pulse of weight loss program patients on thyroid hormone treatment. Here is the method: (§1) The first patient example is a person, 5′2″, weight 268 lbs, body mass index (BMI) 49 (nl 19-24; overweight 25-29; obesity≧30). Baseline blood pressure was 110/74, blood sugar (BS) was 153 mg/dL 10 days after their first visit. Their medical problems at baseline included obesity, type 2 diabetes mellitus (DM2), high blood pressure (HTN), fatigue, depression, and asthma. Their medications included glipizide 10 mg daily, amitriptyline 50 mg daily, metoprolol 50 mg daily, furosemide 40 mg daily, potassium chloride, lisinopril 10 mg daily, Advair Discus 500/50 twice daily (bid), and montelukast 10 mg daily. They were started on our comprehensive program. Five months after starting their weight loss treatment, they developed symptoms of hypothyroidism with constipation and fatigue. They had lost 28 lbs by this time and was having difficulty losing more weight even though they were eating less than they were before their weight loss treatment began. At the start of treatment, their FT4 was 0.9 ng/dL (nl 0.7-1.48). At the time of their low thyroid symptoms, their FT3 was 2.9 pg/mL (nl 1.71-3.71) and their FT4 was 0.91 ng/dL (nl 0.7-1.48). They were then treated with thyroid hormone (desiccated thyroid with a ratio of T4:T3 of about 4:1) at 60 mg daily for 6 days to acclimate, then increased to 120 mg daily. […] After two years on their weight loss treatment, their weight was 231 lbs. […] We tested for rT3 at this point. Their labs on the 150 mg dose of desiccated thyroid were: rT3 394 pg/mL (nl 90-350), FT3 3.94 pg/mL (nl 1.71-3.71), and FT4 1.24 ng/dL (nl 0.7-1.48). The task of bringing down their rT3 was then addressed. Over a period of a few months, their desiccated thyroid hormone was discontinued and instead the patient was given gradually increasing doses of T3 only, starting at 20 mcg daily and gradually increasing the T3 to 60 mcg bid. Five months after starting on T3 with increasing doses, their weight had dropped to 209 lbs. Their BP was 118/66 mmHg with pulse of 74 on lisinopril 10 mg daily, metoprolol 50 mg bid, and furosemide 40 mg daily. Instead of glipizide, they were taking metformin 500 mg bid. […] Their most recent labs on 60 mcg bid of T3 were FT3 3.8 pg/mL (nl 1.71-3.71), FT4 0.64 ng/dL (nl 0.7-1.48) and rT3 137 pg/mL (nl 90-350). Four months prior to this visit their BS was 125 mg/dl.
(§2) The second patient example is a person, 5′2″, weight 150 lbs, BMI 28 (nl 18.5-24.9; overweight 25-29.9; obesity≧30), with HTN. Their blood pressure was slightly elevated at 148/85 (on lisinopril 5 mg daily). Their medical problems at baseline included history of Hashimoto's thyroiditis, borderline high TSH, elevated lipids, and HTN. Their medications were lisinopril 5 mg daily, estradiol 2 mg daily, and rofecoxib 25 mg daily for osteoarthritis of their large joints. […]

Assay [2] in a line: Low thyroid symptoms / clinical status of weight loss program patients on thyroid hormone treatment. Here is the method: as §1, §2
Assay [3] in a line: Body weight of weight loss program patients on thyroid hormone treatment. As to the method:
The first patient example is a person, 5′2″, weight 268 lbs, body mass index (BMI) 49 (nl 19-24; overweight 25-29; obesity≧30). Baseline blood pressure was 110/74, blood sugar (BS) was 153 mg/dL 10 days after their first visit. Their medical problems at baseline included obesity, type 2 diabetes mellitus (DM2), high blood pressure (HTN), fatigue, depression, and asthma. Their medications included glipizide 10 mg daily, amitriptyline 50 mg daily, metoprolol 50 mg daily, furosemide 40 mg daily, potassium chloride, lisinopril 10 mg daily, Advair Discus 500/50 twice daily (bid), and montelukast 10 mg daily. They were started on our comprehensive program. Five months after starting their weight loss treatment, they developed symptoms of hypothyroidism with constipation and fatigue. They had lost 28 lbs by this time and was having difficulty losing more weight even though they were eating less than they were before their weight loss treatment began. At the start of treatment, their FT4 was 0.9 ng/dL (nl 0.7-1.48). At the time of their low thyroid symptoms, their FT3 was 2.9 pg/mL (nl 1.71-3.71) and their FT4 was 0.91 ng/dL (nl 0.7-1.48). They were then treated with thyroid hormone (desiccated thyroid with a ratio of T4:T3 of about 4:1) at 60 mg daily for 6 days to acclimate, then increased to 120 mg daily. […] After two years on their weight loss treatment, their weight was 231 lbs. […]

A short description of assay [4]: Low thyroid symptoms / clinical status of weight loss program patients on thyroid hormone treatment. To be noted: for reported symptoms: Patient Example 4.
The mark [5] stands for this setting: Patient Example 1, on T3 only, with lisinopril, metoprolol, furosemide.
Where [6] appears, read: Patient Example 2, T3 only, 25 mcg bid.

Consider `N[C@@H](Cc1cc(I)c(Oc2ccc(O)c(I)c2)c(I)c1)C(=O)O` [T3, (2S)-2-amino-3-[4-(4-hydroxy-3-iodo-phenoxy)-3,5-diiodo-phenyl]propanoic acid], for which the BP is on record as 118/66 in assay [1] (setting [5]) and 122/80 in assay [1] (Patient Example 2, T3 only, 25 mcg bid, on no medications). Further, the pulse in assay [1] (setting [5]) is listed as 74; in assay [1] (setting [6]), 72. In assay [2] (Patient Example 1, on T3 only), the clinical thyroid status entry is on record as “clinically euthyroid”. In assay [2] (setting [6]), the lipids result is “improved compared to baseline”. Further, the low thyroid symptoms entry in assay [2] (setting [6]) was “no longer suffered from hair loss; their bowels were normal, they felt well”; in assay [4] (Patient Example 3, T3 25 mcg t.i.d. alone, about a week after stopping desiccated thyroid) it was “low thyroid symptoms returned”. For the same compound, the weight in assay [3] (Patient Example 1, five months after starting T3 only, 20 mcg daily increasing to 60 mcg bid) came out at 209 lbs; in assay [3] (setting [6]), 125 lbs. For the same compound, the reported symptoms entry is “feeling cold, hair loss and nail peeling” in assay [4] (T3 50 mcg 2 PO q am and 1 PO 8-10 hours later, initial visit); “continued to report suffering from fatigue and coldness” in assay [4] (same T3 dose (not decreased), over 6 weeks later).
